In ChEMBL document CHEMBL1671624, “Efficacy of quinoxaline-2-carboxylate 1,4-di-N-oxide derivatives in experimental tuberculosis” (Antimicrob Agents Chemother, 2008):
Converted amounts (≈) assume the structure as drawn.

Legend:
[1] = tested on: Mycobacterium tuberculosis; test: Antibacterial activity against Mycobacterium tuberculosis H37Rv by microplate Alamar Blue assay; format: functional
[2] = tested on: Mycobacterium tuberculosis; test: Antibacterial activity against Mycobacterium tuberculosis by microplate Alamar Blue assay; format: functional
[3] = tested on: Mycobacterium tuberculosis; test: Ratio of EC50 to MIC for Mycobacterium tuberculosis; format: functional
[4] = Selectivity index, ratio of EC50 for african green monkey Vero cells to MIC for Mycobacterium tuberculosis; format: functional
[5] = tested on: Mycobacterium tuberculosis; test: Antibacterial activity against p-aminosalicylic acid-resistant Mycobacterium tuberculosis by microplate Alamar Blue assay; format: functional
[6] = tested on: Mycobacterium tuberculosis; test: Antibacterial activity against Mycobacterium tuberculosis Erdman infected in gamma interferon gene knockout C57BL/6 mouse assessed as bacterial load in lung at 300 mg/kg, po administered 18 days postinfection for 9 days measured on day 24 (Rvb= 4.47+/-0.12 log CFU); format: functional
[7] = tested on: Mycobacterium tuberculosis; test: Antibacterial activity against Mycobacterium tuberculosis Erdman infected in gamma interferon gene knockout C57BL/6 mouse assessed as bacterial load in spleen at 300 mg/kg, po administered 18 days postinfection for 9 days measured on day 24 (Rvb= 6.57+/-0.17 log CFU); format: functional
Mus musculus [8] = test: Toxicity in C57BL/6 mouse assessed as acute adverse effects upto 1000 mg/kg, po; format: organism-based; parameters: dose 1000 mg/kg, route oral; conditions: in vivo
Mus musculus [9] = test: Toxicity in C57BL/6 mouse assessed as acute reactions upto 1000 mg/kg, po; format: organism-based; parameters: dose 1000 mg/kg, route oral; conditions: in vivo
[10] = tested on: Mycobacterium tuberculosis; test: Antimicrobial activity against Mycobacterium tuberculosis Erdman by microplate Alamar Blue assay; format: functional
Blood [11] = test: Drug level in C57BL/6 mouse blood at 25 mg/kg, po; format: ADME, organism-based; parameters: dose 25 mg/kg, route oral; conditions: in vivo
[12] = Terminal half life in C57BL/6 mouse; format: ADME, organism-based; conditions: in vivo, read-out: beta t1/2 (converted)
[13] = tested on: Mycobacterium tuberculosis; test: Antibacterial activity against Mycobacterium tuberculosis H37Rv assessed as compound concentration required for 99.9% bacterial killing by microplate Alamar Blue assay; format: functional
[14] = tested on: Mycobacterium tuberculosis; test: Antibacterial activity against Mycobacterium tuberculosis Erdman infected in gamma interferon gene knockout C57BL/6 mouse assessed as log reduction in bacterial load in lung at 100 mg/kg, po administered 18 days postinfection for 9 days measured on day 24 relative to control; format: functional
[15] = tested on: Mycobacterium tuberculosis; test: Antibacterial activity against Mycobacterium tuberculosis Erdman infected in gamma interferon gene knockout C57BL/6 mouse assessed as log reduction in bacterial load in lung at 25 mg/kg, po administered 18 days postinfection for 9 days measured on day 24 relative to control; format: functional
[16] = tested on: Mycobacterium tuberculosis; test: Ratio of […] for Mycobacterium tuberculosis H37Rv; format: functional
Mus musculus [17] = test: Toxicity in gamma interferon gene knockout C57BL/6 mouse infected with Mycobacterium tuberculosis Erdman assessed as lethargic at 300 mg/kg, po administered 18 days postinfection for 9 days; format: organism-based; parameters: dose 300 mg/kg, route oral; conditions: in vivo
[18] = tested on: Mycobacterium tuberculosis; test: Antibacterial activity against Mycobacterium tuberculosis Erdman infected in gamma interferon gene knockout C57BL/6 mouse assessed as log reduction in bacterial load in spleen at 100 mg/kg, po administered 18 days postinfection for 9 days measured on day 24 relative to control; format: functional
[19] = tested on: Mycobacterium tuberculosis; test: Antibacterial activity against Mycobacterium tuberculosis H37Rv under aerobic conditions; format: functional
[20] = Cmax in C57BL/6 mouse serum after 15 to 30 mins at 100 to 200 mg/kg, po; format: ADME, organism-based; parameters: dose 100-200 mg/kg, route oral
[21] = tested on: Mycobacterium tuberculosis; test: Antibacterial activity against Mycobacterium tuberculosis H37Rv under anaerobic conditions by luciferase based low oxygen recovery assay; format: functional
[22] = tested on: Mycobacterium tuberculosis; test: Antibacterial activity against Mycobacterium tuberculosis Erdman infected in gamma interferon gene knockout C57BL/6 mouse assessed as log reduction in bacterial load in spleen at 300 mg/kg, po administered 18 days postinfection for 9 days measured on day 24 relative to control; format: functional
Blood [23] = test: Drug level in C57BL/6 mouse blood at 100 mg/kg, po; format: ADME, organism-based; parameters: dose 100 mg/kg, route oral; conditions: in vivo
[24] = tested on: Mycobacterium tuberculosis; test: Antibacterial activity against Mycobacterium tuberculosis Erdman infected in gamma interferon gene knockout C57BL/6 mouse assessed as log reduction in bacterial load in lung at 300 mg/kg, po administered 18 days postinfection for 9 days measured on day 24 relative to control; format: functional
[25] = tested on: Mycobacterium tuberculosis; test: Antibacterial activity against Mycobacterium tuberculosis Erdman infected in gamma interferon gene knockout C57BL/6 mouse assessed as log reduction in bacterial load in spleen at 25 mg/kg, po administered 18 days postinfection for 9 days measured on day 24 relative to control; format: functional
Mus musculus [26] = test: Toxicity in gamma interferon gene knockout C57BL/6 mouse infected with Mycobacterium tuberculosis Erdman assessed as with a hunched posture at 300 mg/kg, po administered 18 days postinfection for 9 days; format: organism-based; parameters: dose 300 mg/kg, route oral; conditions: in vivo
Blood [27] = test: Drug level in C57BL/6 mouse blood at 300 mg/kg, po; format: ADME, organism-based; parameters: dose 300 mg/kg, route oral; conditions: in vivo
[28] = tested on: Mycobacterium tuberculosis; test: Antibacterial activity against Mycobacterium tuberculosis Erdman infected in gamma interferon gene knockout C57BL/6 mouse assessed as bacterial load in spleen at 25 mg/kg, po administered 18 days postinfection for 9 days measured on day 24 (Rvb= 6.57+/-0.17 log CFU); format: functional
[29] = tested on: Mycobacterium tuberculosis; test: Antibacterial activity against Mycobacterium tuberculosis Erdman infected in gamma interferon gene knockout C57BL/6 mouse assessed as bacterial load in lung at 25 mg/kg, po administered 18 days postinfection for 9 days measured on day 24 (Rvb= 4.47+/-0.12 log CFU); format: functional

## CCOC(=O)c1c(C)[n+]([O-])c2cc(C)c(C)cc2[n+]1[O-]
[1]
  MIC: ≤ 3.13 µg/mL
[2]
  MIC: 6.25 µg/mL (≈ 22.6 µM)
[3]
  Ratio: 0.46
[4]
  Selectivity Index: >10

## CCOC(=O)c1c(C)[n+]([O-])c2ccc(C)cc2[n+]1[O-]
[1]
  MIC: 3.13 µg/mL (≈ 11.9 µM)
[5]
  MIC: 3.13 µg/mL (≈ 11.9 µM)
[2]
  MIC: 1.56 µg/mL (≈ 5.95 µM)
[3]
  Ratio: 1.4
[4]
  Selectivity Index: >40.06

## CCOC(=O)c1c(C)[n+]([O-])c2ccccc2[n+]1[O-]
[1]
  MIC: 1.56 µg/mL (≈ 6.28 µM)
[2]
  MIC: 1.56 µg/mL (≈ 6.28 µM)
[3]
  Ratio: 0.56
[4]
  Selectivity Index: 30.13

## CCOC(=O)c1c(C)[n+]([O-])c2cc(Cl)c(Cl)cc2[n+]1[O-]
[6]
  log10cfu: 7.64
[1]
  MIC: 0.2 µg/mL (≈ 0.631 µM)
[2]
  MIC: 0.2 µg/mL (≈ 0.631 µM)
[7]
  log10cfu: 6.75
Mus musculus [8]
  Activity: Non-toxic
[3]
  Ratio: >3.15
Mus musculus [9]
  Activity: Non-toxic
[10]
  MIC: 0.39 µg/mL (≈ 1.23 µM)
[4]
  Selectivity Index: >20

## COCCOC(=O)c1c(C)[n+]([O-])c2cc(Cl)c(Cl)cc2[n+]1[O-]
[6]
  log10cfu: 8.73
[1]
  MIC: ≤ 0.2 µg/mL
[5]
  MIC: 0.78 µg/mL (≈ 2.25 µM)
[2]
  MIC: 0.39 µg/mL (≈ 1.12 µM)
[7]
  log10cfu: 7.18
Mus musculus [8]
  Activity: Non-toxic
[3]
  Ratio: >4
Mus musculus [9]
  Activity: Non-toxic
[10]
  MIC: 0.39 µg/mL (≈ 1.12 µM)
[4]
  Selectivity Index: 11.54

## Cc1ccc2c(c1)[n+]([O-])c(C(=O)OCc1ccccc1)c(C)[n+]2[O-]
[6]
  log10cfu: 7.17
[1]
  MIC: 0.39 µg/mL (≈ 1.2 µM)
[5]
  MIC: 0.78 µg/mL (≈ 2.4 µM)
[2]
  MIC: 0.39 µg/mL (≈ 1.2 µM)
[7]
  log10cfu: 6.63
Mus musculus [8]
  Activity: Non-toxic
[3]
  Ratio: 2.9
Mus musculus [9]
  Activity: Non-toxic
[10]
  MIC: 0.78 µg/mL (≈ 2.4 µM)
[4]
  Selectivity Index: 143.7

## Cc1c(C(=O)OCc2ccccc2)[n+]([O-])c2ccccc2[n+]1[O-]
[6]
  log10cfu: 7.41
[1]
  MIC: 0.2 µg/mL (≈ 0.645 µM)
[5]
  MIC: 0.2 µg/mL (≈ 0.645 µM)
[2]
  MIC: 0.1 µg/mL (≈ 0.322 µM)
[7]
  log10cfu: 6.96
Mus musculus [8]
  Activity: Non-toxic
[3]
  Ratio: 1.5
Mus musculus [9]
  Activity: Non-toxic
[10]
  MIC: 0.1 µg/mL (≈ 0.322 µM)
[4]
  Selectivity Index: 470

## Cc1c(C(=O)OCc2ccccc2)[n+]([O-])c2cc(Cl)c(Cl)cc2[n+]1[O-]
[6]
  log10cfu: 8.07
[1]
  MIC: 0.39 µg/mL (≈ 1.03 µM)
[2]
  MIC: 0.2 µg/mL (≈ 0.527 µM)
[7]
  log10cfu: 7.17
Mus musculus [8]
  Activity: Non-toxic
[3]
  Ratio: 14.35
Mus musculus [9]
  Activity: Non-toxic
[10]
  MIC: 0.1 µg/mL (≈ 0.264 µM)
[4]
  Selectivity Index: 29

## COC(=O)c1c(C)[n+]([O-])c2ccc(C)cc2[n+]1[O-]
[1]
  MIC: 3.13 µg/mL (≈ 12.6 µM)
[5]
  MIC: 3.13 µg/mL (≈ 12.6 µM)
[2]
  MIC: 1.56 µg/mL (≈ 6.28 µM)
[3]
  Ratio: 1.24
[4]
  Selectivity Index: >40.06

## COC(=O)c1c(C)[n+]([O-])c2cc(C)c(C)cc2[n+]1[O-]
[1]
  MIC: 3.13 µg/mL (≈ 11.9 µM)
[5]
  MIC: 3.13 µg/mL (≈ 11.9 µM)
[2]
  MIC: 3.13 µg/mL (≈ 11.9 µM)
[3]
  Ratio: 0.52
[4]
  Selectivity Index: >20

## CCOC(=O)c1c(C)[n+]([O-])c2ccc(Cl)cc2[n+]1[O-]
Blood [11]
  Drug uptake: 3 µg/mL
[12]
  half-life: 4 h
[6]
  log10cfu: 4.55
[13]
  MBC: 2.5 µg/mL (≈ 8.84 µM)
[14]
  log10cfu: 2.03
[15]
  log10cfu: 0.99
[16]
  Ratio: 4.2
[1]
  MIC: 0.2 µg/mL (≈ 0.708 µM)
[2]
  MIC: 0.2 µg/mL (≈ 0.708 µM)
Mus musculus [17]
  Activity: Toxic
[18]
  log10cfu: 2.72
[7]
  log10cfu: 3.95
Mus musculus [8]
  Activity: Non-toxic
[19]
  MIC: 0.24 µg/mL (≈ 0.849 µM)
[20]
  Cmax: 5000 ng/mL
[21]
  MIC: 0.42 µg/mL (≈ 1.49 µM)
[22]
  log10cfu: 5.51
[3]
  Ratio: 2.3
Blood [23]
  Drug uptake: 6 µg/mL
[24]
  log10cfu: 5.58
Mus musculus [9]
  Activity: Non-toxic
[10]
  MIC: 0.78 µg/mL (≈ 2.76 µM)
[25]
  log10cfu: 1.61
Mus musculus [26]
  Activity: Toxic
[4]
  Selectivity Index: >50
Blood [27]
  Drug uptake: 9 µg/mL

## Cc1c(C(=O)OCc2ccccc2)[n+]([O-])c2cc(Cl)ccc2[n+]1[O-]
[6]
  log10cfu: 7.21
[2]
  MIC: 0.1 µg/mL (≈ 0.29 µM)
[7]
  log10cfu: 6.62
Mus musculus [8]
  Activity: Non-toxic
[3]
  Ratio: 0.01
Mus musculus [9]
  Activity: Non-toxic
[10]
  MIC: 0.1 µg/mL (≈ 0.29 µM)
[4]
  Selectivity Index: 76.9

## NNC(=O)c1ccncc1 [ISONIAZID]
[28]
  log10cfu: 2.2
[29]
  log10cfu: 4.47
[15]
  log10cfu: 3.33
[25]
  log10cfu: 5.04

## O=C(Nc1ccc([N+](=O)[O-])cc1Cl)c1cc(Cl)ccc1O [NICLOSAMIDE]
[19]
  MIC: 0.28 µg/mL (≈ 0.856 µM)
[21]
  MIC: 0.32 µg/mL (≈ 0.978 µM)

## O=[N+]([O-])c1cn2c(n1)OC[C@@H](OCc1ccc(OC(F)(F)F)cc1)C2 [PRETOMANID]
[19]
  MIC: 0.1 µg/mL (≈ 0.278 µM)
[21]
  MIC: 1.4 µg/mL (≈ 3.9 µM)
